Reference: article PMC5218480 (PLoS ONE, 2017)

System: MV-4-11 cells
Assay: Gene expression microarray analysis (Affymetrix PrimeView) and GSEA
Format: cell-based, human
Parameters: RFU PODN (11730768_x_at) / Fold change /veh PODN (11730768_x_at) / RFU LINC00158 (11744669_a_at) / Fold change /veh LINC00158 (11744669_a_at) / RFU DUSP10 (11751237_a_at) / Fold change /veh DUSP10 (11751237_a_at) / RFU ID3 (11757404_x_at) / Fold change /veh ID3 (11757404_x_at) / RFU PLEKHG5 (11737974_s_at) / Fold change /veh PLEKHG5 (11737974_s_at) / RFU LRRC4B (11730491_at) / Fold change /veh LRRC4B (11730491_at) / RFU GIMAP4 (11747438_a_at) / Fold change /veh GIMAP4 (11747438_a_at) / RFU KRT8 (11758183_x_at) / Fold change /veh KRT8 (11758183_x_at) / RFU CNN1 (11734310_a_at) / Fold change /veh CNN1 (11734310_a_at) / RFU VPS37D (11726825_at) / Fold change /veh VPS37D (11726825_at) / RFU C10orf10 (11716522_x_at) / Fold change /veh C10orf10 (11716522_x_at) / RFU KIR2DL2 /// KIR2DL4 /// KIR2DL5A /// KIR2DL5B /// KIR2DS1 /// KIR2DS2 /// KIR2DS3 /// KIR2DS4 /// KIR3DL3 /// KIR3DL3 /// KIR3DS1 (11738374_at) / Fold change /veh KIR2DL2 /// KIR2DL4 /// KIR2DL5A /// KIR2DL5B /// KIR2DS1 /// KIR2DS2 /// KIR2DS3 /// KIR2DS4 /// KIR3DL3 /// KIR3DL3 /// KIR3DS1 (11738374_at) / RFU C1QL1 (11718748_at) / Fold change /veh C1QL1 (11718748_at) / RFU TMPRSS4 (11747572_a_at) / Fold change /veh TMPRSS4 (11747572_a_at) / RFU HAMP (11756126_x_at) / Fold change /veh HAMP (11756126_x_at) / RFU RNFT2 (11725882_a_at) / Fold change /veh RNFT2 (11725882_a_at) / RFU NR4A2 (11747474_a_at) / Fold change /veh NR4A2 (11747474_a_at) / RFU ABCC12 (11746883_a_at) / Fold change /veh ABCC12 (11746883_a_at) / RFU TMEM136 (11760407_x_at) / Fold change /veh TMEM136 (11760407_x_at) / RFU CLDN22 /// WWC2 (11732394_at) / Fold change /veh CLDN22 /// WWC2 (11732394_at) / RFU HLA-DPB1 (11760878_x_at) / Fold change /veh HLA-DPB1 (11760878_x_at) / RFU SPINT1 (11716480_a_at) / Fold change /veh SPINT1 (11716480_a_at) / RFU GAP43 (11754022_s_at) / Fold change /veh GAP43 (11754022_s_at) / RFU A4GNT (11735810_at) / Fold change /veh A4GNT (11735810_at) / RFU PRB3 (11715151_x_at) / Fold change /veh PRB3 (11715151_x_at) / RFU TUBB4B (11761932_at) / Fold change /veh TUBB4B (11761932_at) / RFU CAPN14 (11732068_a_at) / Fold change /veh CAPN14 (11732068_a_at) / RFU TMCC2 (11721928_a_at) / Fold change /veh TMCC2 (11721928_a_at) / RFU IRGQ (11745062_a_at) / Fold change /veh IRGQ (11745062_a_at) / RFU FAM174B (11720279_a_at) / Fold change /veh FAM174B (11720279_a_at) / RFU TMPRSS4 (11748680_a_at) / Fold change /veh TMPRSS4 (11748680_a_at) / RFU FAM212B (11763350_a_at) / Fold change /veh FAM212B (11763350_a_at) / RFU PLEKHG5 (11743358_a_at) / Fold change /veh PLEKHG5 (11743358_a_at) / RFU ZSCAN30 (11745921_a_at) / Fold change /veh ZSCAN30 (11745921_a_at) / RFU CMKLR1 (11741424_a_at) / Fold change /veh CMKLR1 (11741424_a_at) / RFU LOC101060620 /// MAPK8IP1 (11723275_at) / Fold change /veh LOC101060620 /// MAPK8IP1 (11723275_at) / RFU SPTSSB (11747773_x_at) / Fold change /veh SPTSSB (11747773_x_at) / RFU PRSS12 (11739890_at) / Fold change /veh PRSS12 (11739890_at) / RFU BIN1 (11741810_x_at) / Fold change /veh BIN1 (11741810_x_at) / RFU WNT11 (11732464_a_at) / Fold change /veh WNT11 (11732464_a_at) / RFU C10orf10 (11716521_a_at) / Fold change /veh C10orf10 (11716521_a_at) / RFU C5orf56 (11738089_at) / Fold change /veh C5orf56 (11738089_at) / RFU CYB561 (11721691_x_at) / Fold change /veh CYB561 (11721691_x_at) / RFU ANKRD19P (11752326_a_at) / Fold change /veh ANKRD19P (11752326_a_at) / RFU OR2T12 /// OR2T33 /// OR2T8 (11738714_s_at) / Fold change /veh OR2T12 /// OR2T33 /// OR2T8 (11738714_s_at) / RFU VCAN (11748164_a_at) / Fold change /veh VCAN (11748164_a_at) / RFU JSRP1 (11732532_at) / Fold change /veh JSRP1 (11732532_at) / RFU KRTAP10-11 (11738290_x_at) / Fold change /veh KRTAP10-11 (11738290_x_at) / RFU MYO3A (11730013_a_at) / Fold change /veh MYO3A (11730013_a_at) / RFU EBF3 (11725865_a_at) / Fold change /veh EBF3 (11725865_a_at) / RFU CAMK2N1 (11719241_x_at) / Fold change /veh CAMK2N1 (11719241_x_at) / RFU C5orf56 (11738088_a_at) / Fold change /veh C5orf56 (11738088_a_at) / RFU OLFML3 (11715873_a_at) / Fold change /veh OLFML3 (11715873_a_at) / RFU LOC100653217 /// NTM (11731650_a_at) / Fold change /veh LOC100653217 /// NTM (11731650_a_at) / RFU MAPK11 (11762145_a_at) / Fold change /veh MAPK11 (11762145_a_at) / RFU FIZ1 (11724087_x_at) / Fold change /veh FIZ1 (11724087_x_at) / RFU OASL (11726364_x_at) / Fold change /veh OASL (11726364_x_at) / RFU SOX15 (11748057_x_at) / Fold change /veh SOX15 (11748057_x_at) / RFU CD79A (11719716_a_at) / Fold change /veh CD79A (11719716_a_at) / RFU HIST1H1D (11736915_at) / Fold change /veh HIST1H1D (11736915_at) / RFU CASKIN2 (11723855_a_at) / Fold change /veh CASKIN2 (11723855_a_at) / RFU LOC730098 (11760151_x_at) / Fold change /veh LOC730098 (11760151_x_at) / RFU OR4N2 (11742367_at) / Fold change /veh OR4N2 (11742367_at) / RFU PRRT2 (11749266_a_at) / Fold change /veh PRRT2 (11749266_a_at) / RFU SNX32 (11753110_a_at) / Fold change /veh SNX32 (11753110_a_at) / RFU CDHR5 (11726645_a_at) / Fold change /veh CDHR5 (11726645_a_at) / RFU RCAN1 (11760418_a_at) / Fold change /veh RCAN1 (11760418_a_at) / RFU FAM167A (11723789_a_at) / Fold change /veh FAM167A (11723789_a_at) / RFU FAM26E (11764081_at) / Fold change /veh FAM26E (11764081_at) / RFU ISYNA1 (11749810_s_at) / Fold change /veh ISYNA1 (11749810_s_at) / RFU ACY1 (11761880_at) / Fold change /veh ACY1 (11761880_at) / RFU 11764098_at / Fold change /veh 11764098_at / RFU SAMD14 (11745864_x_at) / Fold change /veh SAMD14 (11745864_x_at) / RFU NPB (11741838_a_at) / Fold change /veh NPB (11741838_a_at) / RFU TMPRSS6 (11731388_a_at) / Fold change /veh TMPRSS6 (11731388_a_at) / RFU KRTAP10-2 (11738614_at) / Fold change /veh KRTAP10-2 (11738614_at) / RFU ARHGAP8 /// PRR5-ARHGAP8 (11727945_x_at) / Fold change /veh ARHGAP8 /// PRR5-ARHGAP8 (11727945_x_at) / RFU KRTAP5-7 /// NADSYN1 (11734609_at) / Fold change /veh KRTAP5-7 /// NADSYN1 (11734609_at) / RFU RASL12 (11751679_a_at) / Fold change /veh RASL12 (11751679_a_at) / RFU CDKN2B (11736163_a_at) / Fold change /veh CDKN2B (11736163_a_at) / RFU PRF1 (11729649_at) / Fold change /veh PRF1 (11729649_at) / RFU, ZNF638 /// ZNF638-IT1 / Fold change vs veh, ZNF638 /// ZNF638-IT1 / RFU, PANK3 / Fold change vs veh, PANK3 / RFU, SH3YL1 / Fold change vs veh, SH3YL1 / RFU, ZEB2 / Fold change vs veh, ZEB2 / RFU, NRIP1 / Fold change vs veh, NRIP1 / RFU, PTTG1IP / Fold change vs veh, PTTG1IP / RFU, CAPN2 / Fold change vs veh, CAPN2 / RFU, MED14 / Fold change vs veh, MED14 / RFU, SNORA58 / Fold change vs veh, SNORA58 / RFU, C1orf63 / Fold change vs veh, C1orf63 / RFU, LRRFIP1 / Fold change vs veh, LRRFIP1 / RFU, NDUFAF7 / Fold change vs veh, NDUFAF7 / RFU, SLC12A2 / Fold change vs veh, SLC12A2 / RFU, IBTK / Fold change vs veh, IBTK / RFU, ESF1 / Fold change vs veh, ESF1 / Fold change vs veh, TMEM50B / RFU, TAOK1 / Fold change vs veh, TAOK1 / RFU, ACBD3 / Fold change vs veh, ACBD3 / RFU, TMA16 / Fold change vs veh, TMA16 / RFU, RWDD3 / Fold change vs veh, RWDD3 / RFU, BCAT1 / Fold change vs veh, BCAT1 / RFU, EDEM3 / Fold change vs veh, EDEM3 / RFU, TMEM33 / Fold change vs veh, TMEM33 / RFU, WDR75 / Fold change vs veh, WDR75 / RFU, AHCTF1 / Fold change vs veh, AHCTF1 / RFU, TFRC / Fold change vs veh, TFRC / RFU, ZDHHC17 / Fold change vs veh, ZDHHC17 / RFU, NOM1 / Fold change vs veh, NOM1 / RFU, ARL8B / Fold change vs veh, ARL8B / RFU, ZBTB11 / Fold change vs veh, ZBTB11 / RFU, TAMM41 / Fold change vs veh, TAMM41 / RFU, KIAA1704 /// LOC100996395 / Fold change vs veh, KIAA1704 /// LOC100996395 / RFU, ING1 / Fold change vs veh, ING1 / RFU, TRMT61B / Fold change vs veh, TRMT61B / RFU, FUBP3 / Fold change vs veh, FUBP3 / RFU, TP53 / Fold change vs veh, TP53 / RFU, TNKS2 / Fold change vs veh, TNKS2 / RFU, ZFP14 / Fold change vs veh, ZFP14 / RFU, ACTR2 / Fold change vs veh, ACTR2 / RFU, PPP3R1 / Fold change vs veh, PPP3R1 / RFU, PIK3R1 / Fold change vs veh, PIK3R1 / RFU, HNRNPA1 / Fold change vs veh, HNRNPA1 / RFU, RNF170 / Fold change vs veh, RNF170 / RFU, ZNF28 / Fold change vs veh, ZNF28 / RFU, RNGTT / Fold change vs veh, RNGTT / RFU, OGT / Fold change vs veh, OGT / RFU, BRD1 / Fold change vs veh, BRD1 / RFU, MARS / Fold change vs veh, MARS / RFU, ZNF655 / Fold change vs veh, ZNF655 / RFU, FAHD1 / Fold change vs veh, FAHD1 / RFU, BDP1 / Fold change vs veh, BDP1 / RFU, LRRCC1 / Fold change vs veh, LRRCC1 / RFU, ARID1A / Fold change vs veh, ARID1A / RFU, ZNF146 / Fold change vs veh, ZNF146 / RFU, ZNF330 / Fold change vs veh, ZNF330 / RFU, GPN3 / Fold change vs veh, GPN3 / RFU, C9orf123 / Fold change vs veh, C9orf123 / RFU, N4BP2L2 / Fold change vs veh, N4BP2L2 / RFU, ARFIP1 / Fold change vs veh, ARFIP1 / RFU, FAM179B / Fold change vs veh, FAM179B / RFU, BCL10 / Fold change vs veh, BCL10 / RFU, UHRF1BP1L / Fold change vs veh, UHRF1BP1L / RFU, BET1 / Fold change vs veh, BET1 / RFU, CNOT2 / Fold change vs veh, CNOT2 / RFU, ZNF268 / Fold change vs veh, ZNF268 / Fold change vs veh, ZNF507 / RFU, DGCR2 / Fold change vs veh, DGCR2 / RFU, WDSUB1 / Fold change vs veh, WDSUB1 / Fold change vs veh, HSP90B1 /// MIR3652 / RFU, ADSS / Fold change vs veh, ADSS / RFU, GK / Fold change vs veh, GK / RFU, ZNF148 / Fold change vs veh, ZNF148 / RFU, TAF9 / Fold change vs veh, TAF9 / RFU, SLC1A5 / Fold change vs veh, SLC1A5 / RFU, SLMO2 / Fold change vs veh, SLMO2 / RFU, ABCC4 / Fold change vs veh, ABCC4 / RFU, LOC101060439 /// RAP1B / Fold change vs veh, LOC101060439 /// RAP1B / RFU, RFX7 / Fold change vs veh, RFX7 / RFU, GTPBP10 / Fold change vs veh, GTPBP10 / RFU, CNEP1R1 / Fold change vs veh, CNEP1R1 / RFU, BIVM-ERCC5 /// ERCC5 / Fold change vs veh, BIVM-ERCC5 /// ERCC5 / RFU, ILF3 / Fold change vs veh, ILF3 / RFU 11762660_at / Fold change /veh 11762660_at / RFU VCAN (11757783_s_at) / Fold change /veh VCAN (11757783_s_at) / RFU DDX43 (11728927_at) / Fold change /veh DDX43 (11728927_at) / RFU KRT8 (11758188_x_at) / Fold change /veh KRT8 (11758188_x_at) / RFU NKD1 (11759106_at) / Fold change /veh NKD1 (11759106_at) / RFU SRD5A1 (11742802_a_at) / Fold change /veh SRD5A1 (11742802_a_at) / RFU TPSAB1 /// TPSB2 (11721975_s_at) / Fold change /veh TPSAB1 /// TPSB2 (11721975_s_at) / RFU GSTM3 (11746129_a_at) / Fold change /veh GSTM3 (11746129_a_at) / RFU IL23R (11737362_x_at) / Fold change /veh IL23R (11737362_x_at) / RFU TMEM51 (11727254_a_at) / Fold change /veh TMEM51 (11727254_a_at) / RFU PIWIL2 (11732686_x_at) / Fold change /veh PIWIL2 (11732686_x_at) / RFU ORM1 (11744905_x_at) / Fold change /veh ORM1 (11744905_x_at) / RFU CCDC152 (11743942_at) / Fold change /veh CCDC152 (11743942_at) / RFU ECM1 (11717891_a_at) / Fold change /veh ECM1 (11717891_a_at) / RFU IL23R (11748794_a_at) / Fold change /veh IL23R (11748794_a_at) / RFU TNFAIP8L3 (11732012_x_at) / Fold change /veh TNFAIP8L3 (11732012_x_at) / RFU MBOAT4 (11741988_at) / Fold change /veh MBOAT4 (11741988_at) / RFU 11764193_at / Fold change /veh 11764193_at / RFU TMEM53 (11763286_at) / Fold change /veh TMEM53 (11763286_at) / RFU MAGEB2 (11727129_at) / Fold change /veh MAGEB2 (11727129_at) / RFU TMEM200A (11744735_a_at) / Fold change /veh TMEM200A (11744735_a_at) / RFU CCDC152 (11751479_a_at) / Fold change /veh CCDC152 (11751479_a_at) / RFU FAM211A (11726209_a_at) / Fold change /veh FAM211A (11726209_a_at) / RFU RGS16 (11746705_a_at) / Fold change /veh RGS16 (11746705_a_at) / RFU VCAN (11755009_s_at) / Fold change /veh VCAN (11755009_s_at) / RFU RHOB (11743442_s_at) / Fold change /veh RHOB (11743442_s_at) / RFU RGS16 (11720943_a_at) / Fold change /veh RGS16 (11720943_a_at) / RFU RGS16 (11720944_at) / Fold change /veh RGS16 (11720944_at) / RFU, VPS4B / Fold change vs veh, VPS4B / RFU, CREB1 / Fold change vs veh, CREB1 / RFU, DNAJC13 / Fold change vs veh, DNAJC13 / RFU, GNAQ / Fold change vs veh, GNAQ / RFU, CDK5R1 / Fold change vs veh, CDK5R1 / RFU, ZRANB3 / Fold change vs veh, ZRANB3 / RFU, CUL4A / Fold change vs veh, CUL4A / RFU, CCNY / Fold change vs veh, CCNY / RFU, UFL1 / Fold change vs veh, UFL1 / RFU, COG3 / Fold change vs veh, COG3 / RFU, DIAPH2 / Fold change vs veh, DIAPH2 / RFU, SKA2 / Fold change vs veh, SKA2 / RFU, AFF3 / Fold change vs veh, AFF3 / RFU, LMF1 / Fold change vs veh, LMF1 / RFU, IPO11 / Fold change vs veh, IPO11 / RFU, DFFB / Fold change vs veh, DFFB / RFU, FOXP1 / Fold change vs veh, FOXP1 / RFU, CARD8 / Fold change vs veh, CARD8 / RFU, STRN3 / Fold change vs veh, STRN3 / RFU, ADK / Fold change vs veh, ADK / RFU, RASSF2 / Fold change vs veh, RASSF2 / RFU, WIPF1 / Fold change vs veh, WIPF1 / RFU, LARP1B / Fold change vs veh, LARP1B / RFU, RASA1 / Fold change vs veh, RASA1 / RFU, RB1 / Fold change vs veh, RB1 / RFU, PPFIA1 / Fold change vs veh, PPFIA1 / RFU, MAT2A / Fold change vs veh, MAT2A / RFU, CCT5 / Fold change vs veh, CCT5 / RFU, WDR92 / Fold change vs veh, WDR92 / RFU, CUX1 / Fold change vs veh, CUX1 / RFU, TTC7A / Fold change vs veh, TTC7A / RFU, TMEM135 / Fold change vs veh, TMEM135 / RFU, DEPTOR / Fold change vs veh, DEPTOR / RFU, CPM / Fold change vs veh, CPM / RFU, DNAJB6 / Fold change vs veh, DNAJB6 / RFU, CACNA2D3 / Fold change vs veh, CACNA2D3 / RFU, DTX4 / Fold change vs veh, DTX4 / RFU, TFCP2 / Fold change vs veh, TFCP2 / RFU, GMCL1 /// GMCL1P1 / Fold change vs veh, GMCL1 /// GMCL1P1 / RFU, AEBP2 / Fold change vs veh, AEBP2 / RFU, SNHG1 /// SNORD22 /// SNORD25 /// SNORD26 /// SNORD27 /// SNORD28 /// SNORD29 /// SNORD31 / Fold change vs veh, SNHG1 /// SNORD22 /// SNORD25 /// SNORD26 /// SNORD27 /// SNORD28 /// SNORD29 /// SNORD31 / Fold change (Aza/veh), C12orf56 (ProbeSet 11735607_a_at) / Fold change (ACY-1035/veh), C12orf56 (ProbeSet 11735607_a_at) / Fold change (Aza/veh), FGFR1OP (ProbeSet 11751329_s_at) / Fold change (ACY-1035/veh), FGFR1OP (ProbeSet 11751329_s_at) / Fold change (Aza/veh), VPS36 (ProbeSet 11739960_a_at) / Fold change (ACY-1035/veh), VPS36 (ProbeSet 11739960_a_at) / RFU SYPL1 (11715823_x_at) / Fold change /veh SYPL1 (11715823_x_at) / RFU IGFBP7 (11715501_s_at) / Fold change /veh IGFBP7 (11715501_s_at) / RFU REEP3 (11722064_at) / Fold change /veh REEP3 (11722064_at) / RFU IGLL1 (11728026_x_at) / Fold change /veh IGLL1 (11728026_x_at): dose or concentration left out as unconfirmed
Details: MV-4-11 cells, 48 hours

Nc1ncn([C@@H]2O[C@H](CO)[C@@H](O)[C@H]2O)c(=O)n1 [azacitidine]
Fold change /veh CD79A (11719716_a_at): 0.94
